Source: US20050154537A1, “Methods, program products, and systems for single and multi-agent dosing and other related methods” (priority 2003, published 2005)

Tested on: Neutrophil Count (ANC)
Experiment: Chemotherapeutic triplet cycle dose modifier (Taxol, Gemzar, Carboplatin), toxicity marker
Type: in vivo
Settings: patient on triplet
Text: Table 3 illustrates a method of revising a drug dose in treating a patient with three pharamcologic and non-pharmacological modalities to optimize pharmacologic outcome, e.g., to reduce risk of an adverse drug event while assessing the clinical relevancy and validity of the measured surrogate markers. Previous Level of Toxicity-Efficacy (PLTE) is a value directly entered such as from a lab report. It is the numerical value of the marker of toxicity or efficacy reported at the previous dose cycle adjustment (evaluated at a specified elapsed time sufficient to capture the nadir of the dose effect). The surrogate marker is selected when the dose modifier is constructed. Current Level of Toxicity-Efficacy (CLTE) is a value directly entered such as from a lab report. It is the numerical value of the marker of toxicity or efficacy reported with the current dose cycle. The surrogate marker is that value that illustrates the expression of the toxicity or efficacy of the agent on a specific and pre-selected value determined when the dose modifier is constructed. […] If valid the value is fully appreciated and the dose modification can be calculated. […] The range, in days and indicated as the Lower Limit and Upper limit, has been determined by calculating a percentage (20%) above and below the true nadir value when only a single value is known. […]

CC(=O)O[C@H]1C(=O)[C@@]2(C)[C@H]([C@H](OC(=O)c3ccccc3)[C@]3(O)C[C@H](OC(=O)[C@H](O)[C@@H](NC(=O)c4ccccc4)c4ccccc4)C(C)=C1C3(C)C)[C@]1(OC(C)=O)CO[C@@H]1C[C@@H]2O [Taxol]
Current Level of Toxicity/CLTEM1 (current cycle total dose Taxol 450.00, Gemzar 7000.00, Carboplatin 650.00, marker Oct. 30, 2004): 0.80 | Previous Level of Toxicity/PLTEM1 (previous cycle total dose Taxol 400.00, Gemzar 8000.00, Carboplatin 600.00): 0.40
